From patent publication US8426436B2, “Heterocyclic cyclopamine analogs and methods of use thereof” (Infinity Discovery, Inc., priority 2007, dated 2013) come the findings set out here.

One experiment relates to Hedgehog pathway. As to the kind of experiment: C3H10T1/2 osteoblast differentiation assay (alkaline phosphatase readout, Shh-induced). It is filed as cell-based. Particulars: Mus musculus, C3H 10T1/2; C3H10T1/2 cells, sonic Hedgehog 250 ng/ml, AP activity normalized to total protein; approximate EC50 for inhibition. From the text: Hedgehog pathway specific cancer cell killing effects may be ascertained using the following assay. C3H10T1/2 cells differentiate into osteoblasts when contacted with the sonic hedgehog peptide (Shh-N). Upon differentiation, these osteoblasts produce high levels of alkaline phosphatase (AP) which can be measured in an enzymatic assay (Nakamura, et al., BBRC (1997) 237:465). Compounds that block the differentiation of C3H10T1/2 into osteoblasts (a Shh dependent event) can therefore be identified by a reduction in AP production (van der Horst, et al., Bone (2003) 33:899). The assay details are described below. The results approximate (EC50 for inhibition) of the differentiation assay is shown below in Table 1.
Mouse embryonic mesoderm fibroblasts C3H10T1/2 cells (obtained from ATCC) were cultured in Basal MEM Media (Gibco/Invitrogen) supplemented with 10% heat inactivated FBS (Hyclone), 50 units/ml penicillin and 50 ug/ml streptomycin (Gibco/Invitrogen) at 37° C. with 5% CO2 in air atmosphere.
Alkaline Phosphatase Assay C3H10T1/2 cells were plated in 96 wells with a density of 8×10^3 cells/well. Cells were grown to confluence (72 hrs). After sonic Hedgehog (250 ng/ml), and/or compound treatment, the cells were lysed in 110 μL of lysis buffer (50 mM Tris pH 7.4, 0.1% TritonX100), plates were sonicated and lysates spun through 0.2 μm PVDF plates (Corning). 40 μL of lysates was assayed for AP activity in alkaline buffer solution (Sigma) containing 1 mg/ml p-Nitrophenyl Phosphate. After incubating for 30 min at 37° C., the plates were read on an Envision plate reader at 405 nm. Total protein was quantified with a BCA protein assay kit from Pierce according to manufacturer's instructions. AP activity was normalized against total protein.

A further experiment deals with BxPC-3 cells. As to the kind of experiment: BxPC-3 human pancreatic subcutaneous tumor model, tumor volume. The class given is in vivo, mice. Particulars: BxPC-3 subcutaneous, orally 40 mg/kg/day, 25 daily doses, p=0.0437. How it is done: (§1) The activity of Compound 10 was further tested in a human pancreatic model: BxPC-3 cells were implanted subcutaneously into the flanks of the right legs of mice. On day 42 post-tumor implant, the mice were randomized into two groups to receive either Vehicle (30% HPBCD) or Compound 10. Compound 10 was administered orally at 40 mg/kg/day. […] At the end of the study, the tumors were harvested 4 hours post the last dose to evaluate an on target response by q-RT-PCR analysis of the HH pathway genes.

The test system of another experiment is human Gli-1. Nature of the experiment: q-RT-PCR of HH pathway genes in harvested BxPC-3 tumors, human Gli-1. It is filed as in vivo. Particulars: BxPC-3 tumors harvested 4 hours post last dose, 40 mg/kg/day oral. As for the experimental part: as §1
The test system of a further experiment is murine Gli-1 mRNA. As to the kind of experiment: q-RT-PCR of HH pathway genes in harvested BxPC-3 tumors, murine Gli-1. Particulars: BxPC-3 tumors harvested 4 hours post last dose, 40 mg/kg/day oral. The class given is in vivo. How it is done:
as §1

The test system of experiment [1] is PANC-1 pancreatic cancer cells. Nature of the experiment: PANC-1 orthotopic pancreatic cancer model, tumor weight. The class given is in vivo. Particulars: 40 mg/kg/day, 5 weeks (35 doses), p=0.00014. How it is done:
(§2) The activity of Compound 10 was also tested in another model of pancreatic cancer in which the PANC-1 pancreatic cancer cells were implanted into the orthotopic site, that is, directly into the pancreas. At the end of 5 weeks of dosing, 40 mg/kg/day (a total of 35 doses), tumor growth was monitored by weighing the tumors as they were removed from the animals. There was a statistically significant (p=0.00014) difference between the Compound 10 and vehicle treated animals which was seen as a 47% decrease in tumor weight in the Compound 10 treated animals. In addition, tumor tissue was harvested and RNA was isolated 24 hours after the final dose of Compound 10.

The next experiment relates to human Gli-1 mRNA. Nature of the experiment: Gli-1 mRNA analysis of PANC-1 tumor tissue, human Gli-1. Particulars: RNA isolated 24 hours after final dose. The class given is in vivo. As for the experimental part: as §2
In a further experiment the test system is murine Gli-1. Nature of the experiment: Gli-1 mRNA analysis of PANC-1 tumor tissue, murine Gli-1. As to conditions: RNA isolated 24 hours after final dose. The class given is in vivo. As for the experimental part:
as §2

Another experiment has as its system Gli-1 mRNA. Nature of the experiment: Ptch1/Hic1 medulloblastoma subcutaneous allograft model, Gli-1 mRNA expression. The class given is in vivo, mouse. As to conditions: single oral (PO) dose, subcutaneously implanted tumors, 8 hours post dose. How it is done: (§3) The activity of Compound 10 was evaluated in a transgenic mouse model of medulloblastoma. Mice that are heterozygous for loss of function mutations in the tumor suppressors Patched1 (Ptch1) and Hypermethylated in Cancer (Hic1) develop spontaneous medulloblastoma. […] When passaged as subcutaneous allografts, these tumors grow aggressively and are Hedgehog pathway-dependent. This model was employed to evaluate the efficacy of orally administered Compound, and to correlate activity with drug exposure in plasma and tumors.

Another experiment deals with medulloblastoma. As to the kind of experiment: Ptch1/Hic1 medulloblastoma subcutaneous allograft model, tumor growth. It is filed as in vivo, mouse. How it is done: as §3
The approximate effective daily oral dose for 50% inhibition of tumor growth (ED50) is […] 8 mg/kg.

Each structure is given as a SMILES string. Some results are limits rather than exact numbers.

One may read the EC50 as the concentration at which the effect is half-maximal. Higher therefore signals lower potency in that assay. What is called ED50 is the dose at which the effect has come halfway, by size or by number of responders.

Consider `CC1=C2C[C@H]3[C@@H](CC[C@@H]4Cc5n[nH]cc5C[C@@]43C)[C@@H]2CC[C@@]2(C1)O[C@@H]1C[C@H](C)CN(C)[C@H]1[C@H]2C` [Compound 13], for which the EC50 in the experiment on Hedgehog pathway is 20 to 100 nM.

In the case of `CC1=C2C[C@H]3[C@@H](CC[C@@H]4Cc5[nH]ncc5C[C@@]43C)[C@@H]2CC[C@@]2(C1)O[C@@H]1C[C@H](C)CN(S(N)(=O)=O)[C@H]1[C@H]2C` [Compound 44], the EC50 with Hedgehog pathway lay within 20 to 100 nM.

For `CC1=C2C[C@H]3[C@@H](CC[C@@H]4Cc5n[nH]cc5C[C@@]43C)[C@@H]2CC[C@@]2(C1)O[C@@H]1C[C@H](C)CN(O)[C@H]1[C@H]2C` [Compound 31], the EC50 in the experiment with Hedgehog pathway fell in the range of 20 to 100 nM.

In the case of `CC1=C2C[C@H]3[C@@H](CC[C@@H]4Cc5n[nH]c(C(F)(F)F)c5C[C@@]43C)[C@@H]2CC[C@@]2(C1)O[C@@H]1C[C@H](C)CN[C@H]1[C@H]2C` [Compound 15], the EC50 in the experiment on Hedgehog pathway is > 100 nM.

Compound `CC1=C2C[C@H]3[C@@H](CC[C@@H]4Cc5nocc5C[C@@]43C)[C@@H]2CC[C@@]2(C1)O[C@@H]1C[C@H](C)CN[C@H]1[C@H]2C` [Compound 1] came in with an EC50 in the experiment with Hedgehog pathway of 20 to 100 nM.

In the case of `CC(=O)N1C[C@@H](C)C[C@H]2O[C@]3(CC[C@@H]4C(=C(C)C3)C[C@H]3[C@H]4CC[C@@H]4Cc5n[nH]cc5C[C@@]43C)[C@H](C)[C@@H]21` [Compound 14], the EC50 in the experiment on Hedgehog pathway lay in the range of 20 to 100 nM.

On to `CC1=C2C[C@H]3[C@@H](CC[C@@H]4Cc5nn(S(C)(=O)=O)cc5C[C@@]43C)[C@@H]2CC[C@@]2(C1)O[C@@H]1C[C@H](C)CN[C@H]1[C@H]2C` [Compound 12], for which, in the experiment on Hedgehog pathway, the EC50 was > 100 nM.

`C[C@@H]1CN[C@H]2[C@@H](C)[C@@]3(CC[C@@H]4C(C[C@H]5[C@H]4CC[C@@H]4Cc6[nH]ncc6C[C@@]45C)C3)O[C@@H]2C1` (stereo partly shown) [Compound 17] showed an EC50 with Hedgehog pathway of 20 to 100 nM.

As to `CC1=C2C[C@H]3[C@@H](CC[C@@H]4Cc5[nH]ncc5C[C@@]43C)[C@@H]2CC[C@]12O[C@@H]1C[C@H](C)CN[C@H]1[C@H]2C` [Compound 19], the EC50 in the experiment on Hedgehog pathway was > 100 nM.

In the case of `CC1=C2C[C@H]3[C@@H](CC[C@@H]4Cc5nn(S(=O)(=O)c6ccc(C)cc6)cc5C[C@@]43C)[C@@H]2CC[C@@]2(C1)O[C@@H]1C[C@H](C)CN[C@H]1[C@H]2C` [Compound 43], in the experiment with Hedgehog pathway, the EC50 was > 100 nM.

In the experiment with Hedgehog pathway, `CC1=C2C[C@H]3[C@@H](CC[C@@H]4Cc5nn(C)cc5C[C@@]43C)[C@@H]2CC[C@@]2(C1)O[C@@H]1C[C@H](C)CN[C@H]1[C@H]2C` [Compound 11] displayed an EC50 of 20 to 100 nM.

On to `CC1=C2C[C@H]3[C@@H](CC[C@@H]4Cc5nc(C)sc5C[C@@]43C)[C@@H]2CC[C@@]2(C1)O[C@@H]1C[C@H](C)CN[C@H]1[C@H]2C` [Compound 42], for which, in the experiment with Hedgehog pathway, the EC50 is > 100 nM.

Regarding `CC1=C2C[C@H]3[C@@H](CC[C@@H]4Cc5[nH]ncc5C[C@@]43C)[C@@H]2CC[C@@]2(C1)O[C@@H]1C[C@H](C)CN(S(C)(=O)=O)[C@H]1[C@H]2C` [Compound 40], the EC50 in the experiment with Hedgehog pathway lay in the range of 20 to 100 nM.

As for `CC1=C2C[C@H]3[C@@H](CC[C@@H]4Cc5nn(S(C)(=O)=O)cc5C[C@@]43C)[C@@H]2CC[C@@]2(C1)O[C@@H]1C[C@H](C)CN(S(C)(=O)=O)[C@H]1[C@H]2C` [Compound 41], the EC50 with Hedgehog pathway was > 100 nM.

With `CC1=C2C[C@H]3[C@@H](CC[C@H]4Cc5[nH]ncc5C[C@@]43C)[C@@H]2CC[C@@]2(C1)O[C@@H]1C[C@H](C)CN[C@H]1[C@H]2C` [Compound 45], in the experiment on Hedgehog pathway, the EC50 is > 100 nM.

As for `CC1=C2C[C@H]3[C@@H](CC[C@@H]4Cc5n[nH]cc5C[C@@]43C)[C@@H]2CC[C@@]2(C1)O[C@@H]1C[C@H](C)CN[C@H]1[C@H]2C` [Compound 10], the EC50 with Hedgehog pathway is < 20 nM. In the experiment on BxPC-3 cells, the “reduction of tumor volume growth compared to vehicle control” value was found to be 37%. Besides, the “human Gli-1 modulation (q-RT-PCR)” value in the experiment on human Gli-1 is “no modulation”. Also, in the experiment with murine Gli-1 mRNA, the “murine Gli-1 mRNA levels vs vehicle” value is listed as “robust down-regulation”. Moreover, in experiment [1], the “decrease in tumor weight vs vehicle” value is 47%. Moreover, the “human Gli-1 mRNA modulation” value with human Gli-1 mRNA is reported as “no modulation”. Further, the “murine Gli-1 modulation” value in the experiment on murine Gli-1 was “did reveal modulation”. Besides, in the experiment with Gli-1 mRNA, the “HH pathway regulation measured by Gli-1 mRNA expression” value is on record as “dose-dependent down-regulation”. Besides, the ED50 in the experiment on medulloblastoma (Mus musculus, daily oral dosing, read-out: approximate effective daily oral dose for 50% inhibition of tumor growth (ED50)) was ~8 mg/kg. The tumor growth effect entry in the experiment with medulloblastoma (daily (QD) PO administration) is “dose dependent inhibition of tumor growth, with frank tumor regression seen at higher doses”. Further, in the experiment on medulloblastoma (treated QD for 21 days), the “long term survival following cessation of treatment” value is on record as > 19 days and the “tumor re-growth after cessation of treatment” value is given as “little to no tumor re-growth”.

As to `CC1=C2C[C@H]3[C@@H](CC[C@@H]4Cc5[nH][nH]c(=O)c5C[C@@]43C)[C@@H]2CC[C@@]2(C1)O[C@@H]1C[C@H](C)CN[C@H]1[C@H]2C` [Compound 32], in the experiment with Hedgehog pathway, the EC50 was > 100 nM.
